The subject of assay [1] is Palmer amaranth, waterhemp, kochia, common ragweed or marestail. The assay can be described thus: Pot test, foliar spot treatment of weed patches with the crop growing (Example 2). The assay is classed as in vivo. To be noted: spot foliar treatment of 20% of pot area, 50 g/ha, 150 L/ha, 1% Agri-Dex; weeds and soybean, corn or cotton 14 days old; 21 days in greenhouse. The method, then:
(§1) The evaluation of the herbicidal efficacy is classified into 0 to 100, where the numeral “0” indicates no or little difference in the state of emergence or growth of weeds under test at the time of examination as compared with untreated weeds, and the numeral “100” indicates the complete death of weeds under test or the complete inhibition of emergence or growth of weeds under test.
A pot is filled with soil, and then Palmer amaranth, waterhemp, kochia, common ragweed, or marestail is seeded at a corner portion of the soil, and soybean (Genuity Roundup Ready 2 Xtend), corn (Genuity Roundup Ready 2), or cotton (Genuity Roundup Ready 2 Xtend) is seeded at another corner portion of the soil. The weeds and crops are grown in a greenhouse for 14 days, and a section including vegetation patches of weeds (20% of the area on the pot) is subjected to foliar treatment with a spray liquid of saflufenacil (prepared by diluting Sharpen with water containing 1% (w/v) of adjuvant Agri-Dex) at 50 g/ha (as an application amount in a spot-treated section) and a liquid amount of 150 L/ha (as a liquid amount in a spot-treated section). Thereafter, the weeds and crops are grown in the greenhouse for 21 days. This is defined as the invention plot.

Assay [2] shares this test system. As to the kind of experiment: Pot test, foliar spot treatment of weed patches before seeding the crop (Example 1). The settings on record: spot foliar treatment of 20% of pot area, 50 g/ha, 150 L/ha, 1% Agri-Dex; weeds 14 days old; soybean, corn or cotton seeded immediately after; 21 days in greenhouse. In kind it is in vivo. The method, then: as §1
A pot is filled with a soil, and then Palmer amaranth, waterhemp, kochia, common ragweed or marestail is seeded at a corner portion of the soil. The weeds are grown in a greenhouse for 14 days, and a section including vegetation patches of weeds (20% of the area on the pot) is subjected to foliar treatment with a spray liquid of saflufenacil (prepared by diluting a commercially available formulation of saflufenacil (aqueous suspension concentrate containing 29.74% of saflufenacil, Sharpen, manufactured by BASF) with water containing 1% (w/v) of adjuvant Agri-Dex) at 50 g/ha (as an application amount in a spot-treated section) and a liquid amount of 150 L/ha (as a liquid amount in a spot-treated section). Immediately thereafter, soybean (Genuity Roundup Ready 2 Xtend), corn (Genuity Roundup Ready 2), or cotton (Genuity Roundup Ready 2 Xtend) is seeded in a corner portion different from vegetation patches of weeds in the soil, and grown in the greenhouse for 21 days. This is defined as the invention plot.

Molecules are shown by their SMILES.

Take `CC(C)N(C)S(=O)(=O)NC(=O)c1cc(-n2c(=O)cc(C(F)(F)F)n(C)c2=O)c(F)cc1Cl` [saflufenacil]: the “weed control effect of the invention plot compared with comparative plots (no crop seeded; uniform blanket treatment)” value in assay [1] and in assay [2] was “excellent weed control effect” throughout.

The values are drawn from patent US12245590B2, “Method for controlling weeds” (SUMITOMO CHEMICAL COMPANY, LIMITED, priority 2019, dated 2025).
